# Data as given in ChEMBL document CHEMBL1201862, “PubChem BioAssay data set” (2004).
#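 All cell lines were grown in 96-well plates and treated with compound for 48 hours. GI50 is the concentration that inhibits growth by half.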 Activity calls are given as the source filed them. Rule as the data show it: active = GI50 up to about 1.1 µM and inactive = higher.
# How the values were obtained:
# Test in all cases: DTP human tumour cell line panel, 48 h
# U-251 = system: U-251
# EKVX = system: EKVX
# M14 = system: M14
# SW-620 = system: SW-620
# UACC-257 = system: UACC-257
# HCT-15 = system: HCT-15
# NCI-H23 = system: NCI-H23
# SK-MEL-5 = system: SK-MEL-5
# HL-60 = system: HL-60
# RPMI-8226 = system: RPMI-8226
# RXF 393 = system: RXF 393
# SNB-19 = system: SNB-19
# Malme-3M = system: Malme-3M
# HT-29 = system: HT-29
# CCRF-CEM = system: CCRF-CEM
# TK-10 = system: TK-10
# NCI-H226 = system: NCI-H226
# OVCAR-3 = system: OVCAR-3
# NCI/ADR-RES = system: NCI/ADR-RES
# HOP-62 = system: HOP-62
SMILES,GI50 (U-251),GI50 (EKVX),GI50 (M14),GI50 (SW-620),GI50 (UACC-257),GI50 (HCT-15) [µM],GI50 (NCI-H23),GI50 (SK-MEL-5),GI50 (HL-60),GI50 (RPMI-8226),GI50 (RXF 393),GI50 (SNB-19),GI50 (Malme-3M),GI50 (HT-29),GI50 (CCRF-CEM),GI50 (TK-10),GI50 (NCI-H226),GI50 (OVCAR-3),GI50 (NCI/ADR-RES),GI50 (HOP-62)
c1ccc2cc3n[se]nc3cc2c1,> 100 µM (inactive),> 100 µM (inactive),> 100 µM (inactive),> 100 µM (inactive),> 100 µM (inactive),> 100,39.7 µM (inactive),68.1 µM (inactive),> 100 µM (inactive),> 100 µM (inactive),> 100 µM (inactive),81.1 µM (inactive),> 100 µM (inactive),> 100 µM (inactive),32.5 µM (inactive),> 100 µM (inactive),,,,
C=CCP(=O)(CC=C)C(Cl)Cl,> 100 µM (inactive),,> 100 µM (inactive),> 100 µM (inactive),> 100 µM (inactive),> 100,> 100 µM (inactive),> 100 µM (inactive),> 100 µM (inactive),> 100 µM (inactive),,> 100 µM (inactive),,> 100 µM (inactive),> 100 µM (inactive),> 100 µM (inactive),> 100 µM (inactive),> 100 µM (inactive),> 100 µM (inactive),> 100 µM (inactive)
C=C(C(=O)C(=O)Oc1ccc(Cl)cc1)C(=O)c1ccc(C)cc1,20.7 µM (inactive),> 100 µM (inactive),28.3 µM (inactive),19.3 µM (inactive),71.8 µM (inactive),38.8,> 100 µM (inactive),67.6 µM (inactive),17.9 µM (inactive),31.9 µM (inactive),26.4 µM (inactive),53.2 µM (inactive),78.3 µM (inactive),31.1 µM (inactive),22.8 µM (inactive),> 100 µM (inactive),> 100 µM (inactive),46.8 µM (inactive),,> 100 µM (inactive)
COc1nc2ccc(CNc3ccc(C(=O)NC(CCC(=O)O)C(=O)O)cc3)cc2nc1OC (centres undefined),> 100 µM (inactive),> 100 µM (inactive),> 100 µM (inactive),39.6 µM (inactive),> 100 µM (inactive),53.1,> 100 µM (inactive),> 100 µM (inactive),> 100 µM (inactive),> 100 µM (inactive),> 100 µM (inactive),> 100 µM (inactive),90.8 µM (inactive),> 100 µM (inactive),23.2 µM (inactive),> 100 µM (inactive),> 100 µM (inactive),> 100 µM (inactive),> 100 µM (inactive),> 100 µM (inactive)
COc1ccc2c(c1)CC1Cc3ccccc3CCN1C2 (centres undefined),76 µM (inactive),59 µM (inactive),23.6 µM (inactive),76 µM (inactive),52.8 µM (inactive),61.2,70.3 µM (inactive),20.2 µM (inactive),53.1 µM (inactive),39.5 µM (inactive),25.7 µM (inactive),55 µM (inactive),42.3 µM (inactive),32.4 µM (inactive),98.6 µM (inactive),24.5 µM (inactive),89.1 µM (inactive),35.1 µM (inactive),52 µM (inactive),6.14 µM (inactive)
O=C1OC2(OC2c2ccc(Cl)cc2)c2ccccc21 (centres undefined),,> 100 µM (inactive),> 100 µM (inactive),> 100 µM (inactive),,> 100,,,34.3 µM (inactive),89.1 µM (inactive),62.7 µM (inactive),73.8 µM (inactive),> 100 µM (inactive),> 100 µM (inactive),51.5 µM (inactive),> 100 µM (inactive),> 100 µM (inactive),> 100 µM (inactive),,20.4 µM (inactive)
C/C(=C1/N=C(c2cc([N+](=O)[O-])ccc2Cl)N(c2ccc(Br)cc2)C1=O)c1cc2ccccc2oc1=O,48.3 µM (inactive),> 100 µM (inactive),25.9 µM (inactive),34.2 µM (inactive),45.8 µM (inactive),8.22,38.3 µM (inactive),23.4 µM (inactive),23.7 µM (inactive),26.6 µM (inactive),,55.8 µM (inactive),34.8 µM (inactive),42.1 µM (inactive),16.5 µM (inactive),,> 100 µM (inactive),49.2 µM (inactive),,> 100 µM (inactive)
CC(C)OP(=O)(OC(C)C)/C(I)=N/Nc1ccc([N+](=O)[O-])cc1,> 100 µM (inactive),> 100 µM (inactive),> 100 µM (inactive),> 100 µM (inactive),> 100 µM (inactive),> 100,> 100 µM (inactive),> 100 µM (inactive),> 100 µM (inactive),> 100 µM (inactive),,> 100 µM (inactive),> 100 µM (inactive),> 100 µM (inactive),> 100 µM (inactive),> 100 µM (inactive),,> 100 µM (inactive),,> 100 µM (inactive)
COc1cc2c(cc1OC)-c1cc3ccccc3c(=O)n1CC2,16.4 µM (inactive),24.6 µM (inactive),31.2 µM (inactive),29.1 µM (inactive),40.8 µM (inactive),,37.5 µM (inactive),7.26 µM (inactive),,13.7 µM (inactive),2.33 µM (inactive),43.7 µM (inactive),16.4 µM (inactive),24.8 µM (inactive),25 µM (inactive),19.9 µM (inactive),26.8 µM (inactive),22 µM (inactive),25.2 µM (inactive),5.19 µM (inactive)
O=[N+]([O-])C(=C/c1ccccc1)/C(=C\c1ccccc1)[N+](=O)[O-],15.6 µM (inactive),17.3 µM (inactive),19.1 µM (inactive),13.5 µM (inactive),17 µM (inactive),,15.2 µM (inactive),15.9 µM (inactive),,10.3 µM (inactive),10.2 µM (inactive),18.2 µM (inactive),,17.6 µM (inactive),1.71 µM (inactive),16.1 µM (inactive),19.1 µM (inactive),19.5 µM (inactive),18.7 µM (inactive),19.1 µM (inactive)
Cc1c2cnccc2c(C)c2c1c1ccccc1n2CCCCCCNCc1ccccc1,2.05 µM (inactive),2.11 µM (inactive),,0.608 µM (active),1.96 µM (inactive),1.31,1.91 µM (inactive),2.36 µM (inactive),1.03 µM (active),0.766 µM (active),2.04 µM (inactive),1.88 µM (inactive),2.44 µM (inactive),1.36 µM (inactive),0.489 µM (active),,1.55 µM (inactive),1.87 µM (inactive),0.74 µM (active),4.17 µM (inactive)
